Results published in US10381110B2, “Molecules” (University of Dundee, priority 2010, dated 2019).
Structures can show the parent of a compound that is named as a salt. Where two headings read alike, the source gives them in different places.

Columns and labels:
Alpha1D = biological target: T1, Alpha1D (Homo sapiens, UniProt P25100); assay: Primary radioligand binding assay (NIMH PDSP); conditions: primary radiobinding assay, [3H]Prazosin
T1 sequence (P25100 1-572): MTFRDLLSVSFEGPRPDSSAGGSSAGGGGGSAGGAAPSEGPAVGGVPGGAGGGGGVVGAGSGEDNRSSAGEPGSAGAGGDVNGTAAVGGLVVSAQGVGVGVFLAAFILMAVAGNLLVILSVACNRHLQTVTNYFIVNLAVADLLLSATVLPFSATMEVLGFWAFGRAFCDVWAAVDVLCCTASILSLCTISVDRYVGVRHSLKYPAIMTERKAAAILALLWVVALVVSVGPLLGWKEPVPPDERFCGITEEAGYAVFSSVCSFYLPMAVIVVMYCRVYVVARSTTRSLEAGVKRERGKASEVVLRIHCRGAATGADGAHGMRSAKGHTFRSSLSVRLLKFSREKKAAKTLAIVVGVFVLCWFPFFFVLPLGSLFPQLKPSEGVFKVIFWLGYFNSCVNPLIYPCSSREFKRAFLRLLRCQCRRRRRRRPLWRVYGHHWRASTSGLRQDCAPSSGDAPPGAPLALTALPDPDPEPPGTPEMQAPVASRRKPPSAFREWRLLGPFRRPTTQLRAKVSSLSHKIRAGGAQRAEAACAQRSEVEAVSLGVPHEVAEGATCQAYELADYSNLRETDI

Alpha1A = biological target: T2, Alpha1A (Homo sapiens, UniProt P35348); assay: Primary radioligand binding assay (NIMH PDSP); conditions: primary radiobinding assay, [3H]Prazosin; further: test concentration or dose not given here
T2 sequence (P35348 1-466): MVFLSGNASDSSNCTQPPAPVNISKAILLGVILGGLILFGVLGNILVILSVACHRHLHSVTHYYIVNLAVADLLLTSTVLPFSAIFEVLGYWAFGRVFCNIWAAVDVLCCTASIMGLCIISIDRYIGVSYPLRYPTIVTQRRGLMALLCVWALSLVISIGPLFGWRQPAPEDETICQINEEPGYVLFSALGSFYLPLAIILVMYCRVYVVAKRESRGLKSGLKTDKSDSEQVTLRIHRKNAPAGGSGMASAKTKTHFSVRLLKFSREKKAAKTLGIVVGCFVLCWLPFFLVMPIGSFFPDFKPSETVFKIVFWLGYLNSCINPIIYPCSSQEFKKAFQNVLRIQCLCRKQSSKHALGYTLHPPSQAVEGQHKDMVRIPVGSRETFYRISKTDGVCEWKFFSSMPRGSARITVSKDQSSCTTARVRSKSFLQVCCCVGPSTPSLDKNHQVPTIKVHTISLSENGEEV

dopamine D2 = dopamine D2 (Homo sapiens, UniProt P14416); assay: Secondary radioligand binding assay (Ki); conditions: for α1/D2: Table 22: Selectivity of Dopamine D2 over average of α1 Receptors; for α1A/D2 / α1B/D2 / α1D/D2: Table 22: Selectivity of Dopamine D2 over α1 Receptors, ratio of Ki
Sequence of dopamine D2 (P14416 whole entry, species assumed): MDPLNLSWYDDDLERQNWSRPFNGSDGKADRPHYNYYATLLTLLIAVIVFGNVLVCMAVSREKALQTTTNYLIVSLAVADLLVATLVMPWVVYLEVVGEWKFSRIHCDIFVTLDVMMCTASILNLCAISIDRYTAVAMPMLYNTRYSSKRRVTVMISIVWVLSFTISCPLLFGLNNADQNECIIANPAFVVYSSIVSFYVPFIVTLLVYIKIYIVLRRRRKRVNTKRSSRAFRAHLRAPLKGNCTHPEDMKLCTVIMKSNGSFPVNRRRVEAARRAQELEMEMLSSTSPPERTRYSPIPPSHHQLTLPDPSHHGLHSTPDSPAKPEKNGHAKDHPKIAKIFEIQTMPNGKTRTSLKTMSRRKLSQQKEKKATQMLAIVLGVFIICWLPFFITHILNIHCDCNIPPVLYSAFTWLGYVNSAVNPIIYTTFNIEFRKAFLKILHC
Procedure: (§1) Radioligand is diluted to five times the assay concentration (see Table 18) in Standard Binding Buffer. Typically, the assay concentration of radioligand is a value between one half the KD and the KD of a particular radioligand at its target. 50 μl aliquots of radioligand are dispensed into the wells of a 96-well plate containing 100 μl of Standard Binding Buffer. Then, duplicate 50 μl aliquots of the test and reference compound dilutions are added.
(§2) The 250 μl reactions are incubated at room temperature and shielded from light (to prevent photolysis of light-sensitive ligands) for 1.5 hours, then harvested by rapid filtration onto Whatman GF/B glass fiber filters pre-soaked with 0.3% polyethyleneimine using a 96-well Brandel harverster. Four rapid 500 μl washes are performed with chilled Standard Binding Buffer to reduce non-specific binding. Filters are placed in 6 ml scintillation tubes and allowed to dry overnight. The next day, 4 ml of EcoScint scintillation cocktail (National Diagnostics) are added to each tube. The tubes are capped, labeled, and counted by liquid scintillation counting. […] The filter mats are dried, then scintillant is melted onto the filters and the radioactivity retained on the filters is counted in a Microbeta scintillation counter.
(§3) Raw data (dpm) representing total radioligand binding (i.e. specific+non-specific binding) are plotted as a function of the logarithm of the molar concentration of the competitor (i.e. test or reference compound).
(§4) Assay Buffers: Dopamine Binding Buffer (50 mM NaCl, 50 mM HEPES-HCl, 5 mM MgCl2, 0.5 mM EDTA, pH 7.4)
(§5) Membrane Fraction Source: Transiently or stably transfected cell lines (e.g. HEK293, COS, CHO, NIH3T3)
(§6) The method is carried out in the manner described for the serotonin receptor assay above. Eleven dilutions (5× assay concentration) of the test and reference (see Table 19) compounds are prepared in Dopamine Binding Buffer by serial dilution, as previously described. Radioligand is diluted to five times the assay concentration (see Table 20) in Dopamine Binding Buffer.

5-HT5A = 5-HT5A (Homo sapiens, UniProt P47898); assay: Secondary radioligand binding assay (Ki)
Sequence of 5-HT5A (P47898 whole entry, species assumed): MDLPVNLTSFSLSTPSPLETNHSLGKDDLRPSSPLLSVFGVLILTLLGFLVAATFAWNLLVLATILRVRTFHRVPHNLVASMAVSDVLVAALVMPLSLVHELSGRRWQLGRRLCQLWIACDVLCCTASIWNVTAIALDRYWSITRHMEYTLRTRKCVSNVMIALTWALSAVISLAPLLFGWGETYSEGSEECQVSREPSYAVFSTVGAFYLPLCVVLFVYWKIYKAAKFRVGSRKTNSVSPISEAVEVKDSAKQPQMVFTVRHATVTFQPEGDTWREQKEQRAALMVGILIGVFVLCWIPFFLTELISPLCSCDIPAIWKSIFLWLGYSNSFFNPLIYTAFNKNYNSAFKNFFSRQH
Procedure: (§7) Assay Buffer: Standard Binding Buffer (50 mM Tris-HCl, 10 mM MgCl2, 1 mM EDTA, pH 7.4)
(§8) Membrane Fraction Source: Transiently or stably transfected cell lines (e.g., HEK293, COS, CHO, NIH3T3)
as §1, §2, §3

5-HT2B = 5-HT2B (Homo sapiens, UniProt P41595); assay: Secondary radioligand binding assay (Ki)
Sequence of 5-HT2B (P41595 whole entry, species assumed): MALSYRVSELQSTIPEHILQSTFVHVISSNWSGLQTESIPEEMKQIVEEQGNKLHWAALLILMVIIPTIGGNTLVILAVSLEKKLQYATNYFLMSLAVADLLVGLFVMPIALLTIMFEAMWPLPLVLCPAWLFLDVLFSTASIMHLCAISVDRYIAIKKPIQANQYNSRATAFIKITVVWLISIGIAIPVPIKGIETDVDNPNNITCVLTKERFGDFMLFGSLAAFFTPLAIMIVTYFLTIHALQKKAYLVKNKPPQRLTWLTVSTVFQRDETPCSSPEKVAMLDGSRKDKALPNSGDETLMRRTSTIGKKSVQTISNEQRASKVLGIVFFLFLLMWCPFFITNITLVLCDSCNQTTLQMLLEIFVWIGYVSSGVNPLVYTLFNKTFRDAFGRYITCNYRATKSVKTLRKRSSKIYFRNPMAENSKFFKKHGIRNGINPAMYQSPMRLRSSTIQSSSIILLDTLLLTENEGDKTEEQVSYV
Procedure: as §7, §8, §1, §2, §3

dopamine D3 = dopamine D3 (Homo sapiens, UniProt P35462); assay: Secondary radioligand binding assay (Ki); conditions: for α1A/D2 / α1B/D2 / α1D/D2: Table 23: Selectivity of Dopamine D3 over α1 Receptors, ratio of Ki; for α1/D2: Table 23: Selectivity of Dopamine D3 over average of α1 Receptors
Sequence of dopamine D3 (P35462 whole entry): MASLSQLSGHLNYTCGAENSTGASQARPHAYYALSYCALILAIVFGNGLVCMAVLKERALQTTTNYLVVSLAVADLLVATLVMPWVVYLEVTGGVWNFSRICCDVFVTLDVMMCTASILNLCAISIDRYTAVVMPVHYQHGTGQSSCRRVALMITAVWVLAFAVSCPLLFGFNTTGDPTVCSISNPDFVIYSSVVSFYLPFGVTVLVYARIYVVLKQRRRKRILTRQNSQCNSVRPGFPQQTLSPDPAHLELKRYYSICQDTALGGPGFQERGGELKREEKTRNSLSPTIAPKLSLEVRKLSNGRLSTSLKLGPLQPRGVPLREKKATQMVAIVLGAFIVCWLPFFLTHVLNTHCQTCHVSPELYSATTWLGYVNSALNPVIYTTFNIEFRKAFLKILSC
Procedure: as §1, §2, §3, §4, §5, §6

dopamine D5 = dopamine D5 (Homo sapiens, UniProt P21918); assay: Primary radioligand binding assay (NIMH PDSP); conditions: primary radiobinding assay, [3H]SCH233930; further: test concentration or dose not given here
Sequence of dopamine D5 (P21918 whole entry): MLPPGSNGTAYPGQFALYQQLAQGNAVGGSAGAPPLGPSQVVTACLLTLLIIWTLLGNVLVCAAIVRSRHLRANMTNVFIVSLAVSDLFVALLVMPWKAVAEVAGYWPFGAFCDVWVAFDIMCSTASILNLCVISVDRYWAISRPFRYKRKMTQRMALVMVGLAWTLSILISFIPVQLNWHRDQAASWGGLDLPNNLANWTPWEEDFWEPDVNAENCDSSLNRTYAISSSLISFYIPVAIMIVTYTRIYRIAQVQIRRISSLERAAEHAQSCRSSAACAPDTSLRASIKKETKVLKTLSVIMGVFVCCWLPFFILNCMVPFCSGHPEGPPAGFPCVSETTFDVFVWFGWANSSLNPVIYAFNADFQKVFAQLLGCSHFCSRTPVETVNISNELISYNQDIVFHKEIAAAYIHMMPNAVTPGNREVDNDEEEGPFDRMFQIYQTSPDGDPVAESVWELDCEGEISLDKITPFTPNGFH

dopamine D4 = biological target: T3, dopamine D4 (Homo sapiens, UniProt P21917); assay: Primary radioligand binding assay (NIMH PDSP); conditions: primary radiobinding assay, N-methylspiperone; further: test concentration or dose not given here
T3 sequence (P21917 1-419): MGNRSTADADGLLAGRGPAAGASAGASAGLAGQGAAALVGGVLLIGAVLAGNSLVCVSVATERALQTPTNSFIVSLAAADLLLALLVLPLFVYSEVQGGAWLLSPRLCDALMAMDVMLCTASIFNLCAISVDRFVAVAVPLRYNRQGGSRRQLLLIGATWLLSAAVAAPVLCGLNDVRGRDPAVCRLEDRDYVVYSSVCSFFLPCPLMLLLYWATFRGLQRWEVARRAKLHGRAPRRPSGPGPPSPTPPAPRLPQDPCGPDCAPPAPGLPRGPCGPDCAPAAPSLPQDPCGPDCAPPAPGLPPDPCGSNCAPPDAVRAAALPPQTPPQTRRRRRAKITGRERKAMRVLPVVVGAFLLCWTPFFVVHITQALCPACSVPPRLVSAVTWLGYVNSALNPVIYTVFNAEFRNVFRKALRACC

Alpha1B = biological target: T4, Alpha1B (Homo sapiens, UniProt P35368); assay: Primary radioligand binding assay (NIMH PDSP); conditions: primary radiobinding assay, [3H]Prazosin; further: test concentration or dose not given here
T4 sequence (P35368 1-520): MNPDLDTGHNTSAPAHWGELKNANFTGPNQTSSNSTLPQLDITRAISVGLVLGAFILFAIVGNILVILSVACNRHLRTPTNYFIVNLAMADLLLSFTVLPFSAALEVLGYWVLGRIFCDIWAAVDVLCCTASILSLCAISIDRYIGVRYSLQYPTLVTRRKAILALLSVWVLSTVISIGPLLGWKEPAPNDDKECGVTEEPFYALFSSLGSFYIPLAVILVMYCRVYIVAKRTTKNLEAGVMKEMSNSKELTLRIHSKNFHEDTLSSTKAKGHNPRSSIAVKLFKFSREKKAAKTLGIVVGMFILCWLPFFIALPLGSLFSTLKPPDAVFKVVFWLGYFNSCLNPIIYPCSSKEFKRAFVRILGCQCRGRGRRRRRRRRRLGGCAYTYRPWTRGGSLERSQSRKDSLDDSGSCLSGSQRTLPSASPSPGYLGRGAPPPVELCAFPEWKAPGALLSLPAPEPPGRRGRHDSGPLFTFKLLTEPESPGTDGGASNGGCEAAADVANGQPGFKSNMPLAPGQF

[1] = read-out: Experimental Receptor Binding Data-Ki D2, Table 25, GPCR panel
[2] = read-out: Experimental Receptor Binding Data-Ki D3, Table 25, GPCR panel

Compound	Alpha1D (% inh) (Alpha1D)	Alpha1A (% inh) (Alpha1A)	α1/D2 (dopamine D2)	α1A/D2 (dopamine D2)	α1B/D2 (dopamine D2)	α1D/D2 (dopamine D2)	Ki (dopamine D2; [1])	Ki (dopamine D2; read-out: KiD2)	α1A/D2 (dopamine D3)	α1B/D2 (dopamine D3)	α1D/D2 (dopamine D3)	Ki (dopamine D3; [2])	Ki (dopamine D3; read-out: KiD3)	D5 (% inh) (dopamine D5)	D4 (% inh) (dopamine D4)	Alpha1B (% inh) (Alpha1B)	Ki (5-HT5A)	Ki (5-HT2B)	α1/D2 (dopamine D3)	Ki (dopamine D2)	also measured
COc1ccc2c(c1)C(=O)N(CCN1CCN(c3ccccc3OC)CC1)C2 [GFR-VII-280]	97.3 % inh	101.2 % inh	0.014	0.010	0.023	0.008	1650 nM	1650 nM	0.08	0.19	0.06	208 nM	208 nM	21.8 % inh	97.2 % inh	104.4 % inh	–	–	–	–	Ki (5-HT5A; read-out: Experimental Receptor Binding Data-Ki 5HT5A, Table 25, GPCR panel): 2150 nM; Ki (5-HT2B; read-out: Experimental Receptor Binding Data-Ki 5HT2B, Table 25, GPCR panel): 160 nM
COc1ccc2c(c1)CN(CCCN1CCN(c3ccccc3OC)CC1)C2=O [GFR-VII-290]	100.5 % inh	99.1 % inh	0.177	0.044	0.445	0.041	1370 nM	1370 nM	0.4	4.0	0.37	152 nM	152 nM	32.5 % inh	97.3 % inh	52.4 % inh	2470 nM	117 nM	1.6	–	–
COc1cc2c(cc1OC)C(=O)N(CCCCN1CCN(c3ccccc3OC)CC1)C2 [GFR-VII-285]	96.8 % inh	102.7 % inh	0.053	0.006	0.124	0.028	156 nM	156 nM	0.08	1.8	0.4	11 nM	11 nM	75.1 % inh	91.6 % inh	101.5 % inh	2440 nM	41 nM	0.75	–	–
CC1Cc2ccccc2N1C(=O)CN1CCN(Cc2ccccc2)CC1 (stereo not drawn) [STT-00185638, 2-[-4-(benzyl)-piperazin-1-yl]-1-(2-methy-2,3-dihydro-indol-1-yl)-ethanone]	42.8 % inh	69.1 % inh	–	–	–	–	–	–	–	–	–	–	–	9.7 % inh	99.4 % inh	16 % inh	6770 nM	879 nM	–	2460 nM	Ki (dopamine D3): 3220 nM
COc1ccc2c(c1)C(=O)N(CCCN1CCN(c3ccccc3OC)CC1)C2 [GFR-VII-273]	99.3 % inh	102.2 % inh	0.12	0.080	0.398	0.100	–	–	0.4	1.98	0.5	–	–	31.8 % inh	99.6 % inh	102.5 % inh	2900 nM	19 nM	1.0	812 nM	Ki (dopamine D3): 163 nM
COc1ccc2c(c1)C(=O)N(CCN1CCN(c3ccccc3OC)CC1)C2 [GFR-VII-280-HCl]	98.7 % inh	101.5 % inh	0.008	0.005	0.017	0.003	–	–	0.05	0.16	0.03	–	–	6 % inh	95.9 % inh	101 % inh	2490 nM	242 nM	0.1	1740 nM	Ki (dopamine D3): 180 nM
